Assay results as given in US20260015409A1, “RECEPTOR-MEDIATED ENDOCYTOSIS FOR TARGETED INTERNALIZATION AND DEGRADATION OF MEMBRANE PROTEINS AND CARGOS” (Dana-Farber Cancer Institute, Inc., priority 2022, published 2026).
Entries after “also recorded” stand apart in the source; their conditions may differ. Where a SMILES comes first, the peptide text is derived from it. The star is where a group is joined. Cbz = O=C(OCc1ccccc1)*

Experiments:
PC9-GR4 cells = experiment: MTT cell viability assay, PC9-GR4 cells; type: cell-based
PC9 GR4 C797S cells = experiment: MTT cell viability assay, PC9 GR4 C797S cells
EGFR = biological target: T1, EGFR (Homo sapiens, UniProt P00533); experiment: EGFR degradation by Western blot in A549 lung carcinoma cells; type: cell-based; settings: A549 cells treated with EGFR-TransTACs; 1 μM inhibitor
T1 construct: endogenous in cells; host or cells: A549
Procedure: Targeted therapy with tyrosine kinase inhibitors is a standard treatment for lung cancer with EGFR mutations. We reasoned that co-targeting an EGFR and a TfR receptor on lung cancer cells could lead to EGFR inhibition while maintaining high tumor specificity (FIG. 30A). We generated an anti-EGFR affibody*H7*GFLG-VR TransTAC. Incubation of the molecule with a human lung adenocarcinoma A549 cell line led to >90% EGFR degradation (FIG. 30B). […] This specificity results from higher TfR expression in tumor cells (FIG. 27A-C).
Next, we aimed to target epidermal growth factor receptor (EGFR), a receptor tyrosine kinase that plays an important role in the development and progression of various types of cancers such as lung and brain. An affibody (Friedman, Mikaela, et al. “Directed evolution to low nanomolar affinity of a tumor-targeting epidermal growth factor receptor-binding affibody molecule.” Journal of molecular biology 376.5, 2008: 1388-1402) was used to bind EGFR and create an EGFR-TransTAC.
We next investigated the cellular mechanism underlying TransTAC-mediated protein degradation. Two primary pathways involved in the degradation of cellular proteins were tested: the lysosomal pathway and the proteosome pathway. A549 cells were treated either with bafilomycin, a vacuolar proton pump inhibitor that inhibits lysosomal acidification, or MG132, a proteasomal inhibitor.

CD20 = biological target: T2, CD20 (Homo sapiens, UniProt P11836); experiment: CD20 degradation in Raji cells; type: cell-based; settings: Western blot
T2 construct: endogenous in cells; host or cells: Raji
T2 sequence (P11836 1-297): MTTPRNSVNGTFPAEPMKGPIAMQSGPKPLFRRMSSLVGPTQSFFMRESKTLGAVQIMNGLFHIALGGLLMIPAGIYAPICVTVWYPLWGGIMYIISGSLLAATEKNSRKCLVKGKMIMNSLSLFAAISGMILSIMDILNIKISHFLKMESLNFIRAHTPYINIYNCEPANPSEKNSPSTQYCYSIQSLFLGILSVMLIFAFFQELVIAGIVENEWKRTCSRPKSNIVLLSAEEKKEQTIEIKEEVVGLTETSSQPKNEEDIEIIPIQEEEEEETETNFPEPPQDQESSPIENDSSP
Text: Cluster of differentiate 20 (CD20) is a B cell-specific surface marker with four transmembrane domains and an unknown function. Knocking down cell surface CD20s with a degrader can be valuable. A CD20-TransTAC was created using a Fab format of Rituximab, the first clinically approved CD20 antibody, to bind CD20.

T1 sequence (P00533 25-1210): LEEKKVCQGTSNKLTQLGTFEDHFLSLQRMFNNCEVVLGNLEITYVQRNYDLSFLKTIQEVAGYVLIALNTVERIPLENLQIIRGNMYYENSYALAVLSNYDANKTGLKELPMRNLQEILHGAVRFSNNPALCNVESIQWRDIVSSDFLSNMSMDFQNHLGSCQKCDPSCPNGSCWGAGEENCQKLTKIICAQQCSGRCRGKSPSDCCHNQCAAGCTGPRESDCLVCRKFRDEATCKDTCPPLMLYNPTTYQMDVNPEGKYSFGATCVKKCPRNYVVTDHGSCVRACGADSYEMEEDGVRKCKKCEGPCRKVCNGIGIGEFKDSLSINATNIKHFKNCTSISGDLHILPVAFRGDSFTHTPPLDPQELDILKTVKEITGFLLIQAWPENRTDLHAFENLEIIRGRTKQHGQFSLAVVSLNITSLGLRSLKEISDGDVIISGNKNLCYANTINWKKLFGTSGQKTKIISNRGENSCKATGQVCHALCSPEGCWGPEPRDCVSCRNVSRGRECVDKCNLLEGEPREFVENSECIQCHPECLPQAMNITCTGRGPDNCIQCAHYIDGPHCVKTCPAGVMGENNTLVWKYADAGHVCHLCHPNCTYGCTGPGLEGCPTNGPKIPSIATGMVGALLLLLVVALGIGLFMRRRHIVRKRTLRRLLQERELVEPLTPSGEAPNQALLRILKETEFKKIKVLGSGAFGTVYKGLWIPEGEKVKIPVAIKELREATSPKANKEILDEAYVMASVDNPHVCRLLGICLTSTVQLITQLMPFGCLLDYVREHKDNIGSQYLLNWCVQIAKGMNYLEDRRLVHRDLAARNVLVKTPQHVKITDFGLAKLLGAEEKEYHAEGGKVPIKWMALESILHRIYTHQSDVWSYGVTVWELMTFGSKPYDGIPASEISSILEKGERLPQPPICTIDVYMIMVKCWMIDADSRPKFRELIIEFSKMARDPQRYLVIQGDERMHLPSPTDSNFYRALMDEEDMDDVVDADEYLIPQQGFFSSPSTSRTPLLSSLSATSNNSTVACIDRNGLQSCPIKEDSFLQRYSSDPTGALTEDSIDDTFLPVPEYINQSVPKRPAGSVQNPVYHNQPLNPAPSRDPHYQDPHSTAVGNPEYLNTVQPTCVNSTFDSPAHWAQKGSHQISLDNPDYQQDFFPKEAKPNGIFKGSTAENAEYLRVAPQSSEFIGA

C=CC(=O)Nc1cc(Nc2nccc(-c3cn(C)c4ccccc34)n2)c(OC)cc1N(C)CCN(C)C [osimertinib]
IC50 (PC9-GR4 cells): 207 nM | inhibition of cell viability (PC9 GR4 C797S cells): did not respond

CC(C)C[C@@H](C=O)NC(=O)[C@H](CC(C)C)NC(=O)[C@H](CC(C)C)NC(=O)OCc1ccccc1 [MG132] (Cbz-Leu-Leu-Leu-aldehyde)
effect of inhibitor on TransTAC-mediated EGFR degradation (EGFR): sensitive; also recorded: much less significant effect

rituximab-scFv-Fc control: rituximab scFv-Fc control without TfR binder
CD20 degradation (CD20): does not lead to significant CD20 degradation

CO/C1=C\C(C)=C\[C@@H](C)[C@@H](O)[C@@H](C)C/C(C)=C/C=C/[C@H](OC)[C@@H]([C@@H](C)[C@@H](O)[C@H](C)[C@@]2(O)C[C@@H](O)[C@H](C)[C@@H](C(C)C)O2)OC1=O [bafilomycin]
effect of inhibitor on TransTAC-mediated EGFR degradation (EGFR): sensitive; also recorded: prevented TransTAC-mediated EGFR degradation; also recorded: fully inhibited

CN(C)C/C=C/C(=O)Nc1cc2c(Nc3ccc(F)c(Cl)c3)ncnc2cc1O[C@H]1CCOC1 [afatinib]
IC50 (PC9-GR4 cells): 168 nM
